Measurements as given in patent US20230061858A1, “TREATMENT WITH SITE SPECIFIC HER2 ANTIBODY-DRUG CONJUGATES” (Pfizer Inc., priority 2019, published 2023).
Where a SMILES comes first, the peptide text is derived from it. [ ]: non-standard residue; d: D form. The star is where a group is joined. Dolaproine = CO[C@@H]([C@@H]1CCCN1)[C@@H](C)C(=O)O; Dil = CC[C@H](C)[C@H](NC)[C@@H](CC(=O)O)OC; Doe = c1ccc(C[C@H](N*)c2nccs2)cc1; Aib = CC(C)(N)C(=O)O

Assay: Phase 1 pharmacokinetic assessment, Cycle 1 serum concentrations
Format: in vivo, human
Experimental: Pharmacokinetic assessments included quantifying the serum concentrations of T(kK183C+K290C)-vc0101 ADC (measured as conjugated payload), total antibody, and unconjugated payload using validated bioanalytical assays on blood samples collected before treatment and during the study. Specifically, total antibody concentrations were measured using ELISA method, T(kK183C+K290C)-vc0101 ADC concentrations were measured as conjugated payload using a hybrid LC-MS/MS method, and unconjugated payload concentrations will be measured using an LC-MS/MS method. For preliminary PK assessment, mean serum concentration-time profiles of T(kK183C+K290C)-vc0101 ADC were generated for each dose cohort; Noncompartmental PK parameters were estimated from Cycle 1 concentration-time data using nominal sampling time. For T(kK183C+K290C)-vc0101 ADC and total antibody, PK parameters including the maximum plasma concentration (Cmax), time to maximum plasma concentration (Tmax), and area under the plasma concentration versus time curve (AUCinf, AUCτ), clearance (CL), volume of distribution at steady state (Vss), terminal half-life (t1/2), and accumulation ratio (Rac) were calculated. For unconjugated payload, PK parameters including Cmax, Tmax, AUCinf, AUCτ, t1/2, and Rac, were calculated.

CC[C@H](C)[C@@H]([C@@H](CC(=O)N1CCC[C@H]1[C@H](OC)[C@@H](C)C(=O)N[C@@H](Cc1ccccc1)c1nccs1)OC)N(C)C(=O)[C@@H](NC(=O)C(C)(C)N)C(C)C [unconjugated payload, 2-methylalanyl-N-[(3R,4S,5S)-3-methoxy-1-{(2S)-2-[(1R,2R)-1-methoxy-2-methyl-3-oxo-3-{[(1S)-2-phenyl-1-(1,3-thiazol-2-yl)ethyl]amino}propyl]pyrrolidin-1-yl}-5-methyl-1-oxoheptan-4-yl]-N-methyl-L-valinamide] (H-[Aib]V[Dil][Dolaproine]-Doe)
exposure following IV administration of PF-06804103 (0.15-5.0 mg/kg, Cycle 1): Dose-dependent increases
Serum concentrations compared with ADC (Cycle 1, after IV PF-06804103): substantially lower than those of ADC
